Data as given in BindingDB's records for doi:10.1016/j.bmcl.2012.09.081 (2012).

Experiment: Inhibition of tobacco hornworm V-ATPase c subunit

IC50: 600 nM
Compound: CNC(=O)O[C@@H](CC(C)C)c1nc([C@H]2OC(=O)/C(C)=C/C/C(C)=C/[C@@H](OC(=O)c3ccc(C4(C(F)(F)F)N=N4)cc3)[C@@H](C)\C=C(C)/C=C(C)\C=C\[C@@H](OC(=O)c3ccc(C4(C(F)(F)F)N=N4)cc3)[C@H](C)[C@H](OC)/C(C)=C/C=C/[C@@H]2C)cs1
